From US9132188B2, “Chemically Programmed Vaccination” (The Scripps Research Institute, priority 2009, dated 2015)

Tested on: CT26 tumors
Test: Syngeneic colon cancer model, CT26 tumors in JW-KLH-immunized BALB/C mice
Format: in vivo
Conditions: 200 μL i.p. days 2-17; compared with PBS
Method: FIG. 5 illustrates inhibition of tumor growth in syngenic mice mediated by adaptor-targeted antibodies. […] Mice (six per group) were treated between days 2 and 17 with 200 μL i.p. injections of PBS alone, 60 μg/mL SCS-873 in PBS, or 27.5 μg/mL SCS-397 in PBS. Mean tumor volumes±SD were determined at 3-day intervals from 12 to 30 days post-grafting. […] Mice (six per group) were treated between days 2 and 17 with 200 μL i.p. injections of PBS alone, 77 μg/mL cRGD-dk in PBS, or 42.5 μg/mL cRGD in PBS. Mean tumor volumes±SD were determined at 3-day intervals from 12 to 30 days post-grafting. […] Mean tumor volumes±SD were determined at 3-day intervals from 12 to 24 days post-grafting. […] Mean tumor volumes±SD were determined at 3-day intervals from 12 to 24 days post-grafting.
On day 65, JW-KLH-immunized BALB/C mice were sorted (6 groups with 6 animals each) to form matched anti-JW titer groups and were inoculated s.c. into right flanks with 0.1 mL (2×10^5 cells/mouse) of CT26 cell suspension in PBS (day 0 for tumor model). […] Tumor volumes of treated animals were measured over the skin in two dimensions using a slide caliper every third day starting on day 12, and the tumor volume was calculated according to the following formula, ½(width)^2×length. Toxicity was monitored by determining the body weight of mice once a week. […]

cyclo(Arg-Gly-Asp-D-Phe-Lys) [cRGD]
growth of CT26 tumors (in words): no more effective than treatment with PBS
